Assays:
Homo sapiens [1] = assay: AUC (0 to infinity) in 6 to <=12 years aged pediatric patient administered as single dose; type: ADME, organism-based, Plasma; parameters: time infinity; conditions: in vivo
Homo sapiens [2] = assay: Toxicity in orally dosed VZV-infected patient assessed as at least one adverse event administered as tid; type: organism-based; conditions: in vivo, po
Homo sapiens [3] = assay: Toxicity in VZV-infected 2 to <6 years aged pediatric patient assessed as incidence of pruritus at 40.6 mg/kg, po tid; type: organism-based; parameters: dose 40.6 mg/kg, route oral; conditions: in vivo
Homo sapiens [4] = assay: Toxicity in HSV-infected 6 to <=12 years aged pediatric patient assessed as incidence of nausea at 23.5 mg/kg, po bid; type: organism-based; parameters: dose 23.5 mg/kg, route oral; conditions: in vivo
Homo sapiens [5] = assay: Toxicity in orally dosed VZV-infected patient assessed as incidence of abdominal pain administered as tid; type: organism-based, Abdomen; conditions: in vivo, po
Homo sapiens [6] = assay: Toxicity in VZV-infected 6 to <=12 years aged pediatric patient assessed as incidence of diarrhea at 35.5 mg/kg, po tid; type: organism-based; parameters: dose 35.5 mg/kg, route oral; conditions: in vivo
Homo sapiens [7] = assay: Toxicity in HSV-infected 1 to <2 years aged pediatric patient assessed as incidence of diarrhea at 30.9 mg/kg, po bid; type: organism-based; parameters: dose 30.9 mg/kg, route oral; conditions: in vivo
Homo sapiens [8] = assay: Toxicity in orally dosed HSV-infected patient assessed as incidence of headache administered as bid; type: organism-based; conditions: in vivo, po
Homo sapiens [9] = assay: Toxicity in VZV-infected 6 to <=12 years aged pediatric patient assessed as incidence of vomiting at 35.5 mg/kg, po tid; type: organism-based; parameters: dose 35.5 mg/kg, route oral; conditions: in vivo
Homo sapiens [10] = assay: AUC (0 to last) in 1 to <2 years aged pediatric patient administered as single dose; type: ADME, organism-based, Plasma; parameters: time 0 - last; conditions: in vivo
Homo sapiens [11] = assay: Toxicity in HSV-infected 1 to <2 years aged pediatric patient assessed as at least one adverse event at 30.9 mg/kg, po bid; type: organism-based; parameters: dose 30.9 mg/kg, route oral; conditions: in vivo
Homo sapiens [12] = assay: Toxicity in orally dosed HSV-infected patient assessed as incidence of abdominal pain administered as bid; type: organism-based, Abdomen; conditions: in vivo, po
[13] = Half life in 6 to <=12 years aged pediatric patient administered as single dose; type: ADME, organism-based; conditions: human, in vivo
Homo sapiens [14] = assay: Toxicity in orally dosed VZV-infected patient assessed as pyrexia administered as tid; type: organism-based; conditions: in vivo, po
[15] = Cmax in 6 to <=12 years aged pediatric patient administered as single dose; type: ADME, organism-based; conditions: human, in vivo
[16] = Cmax in 2 to <6 years aged pediatric patient administered as single dose; type: ADME, organism-based; conditions: human, in vivo
Homo sapiens [17] = assay: AUC (0 to last) in 2 to <6 years aged pediatric patient administered as single dose; type: ADME, organism-based, Plasma; parameters: time 0 - last; conditions: in vivo
Homo sapiens [18] = assay: Toxicity in orally dosed HSV-infected patient assessed as incidence of vomiting administered as bid; type: organism-based; conditions: in vivo, po
Homo sapiens [19] = assay: Toxicity in VZV-infected 6 to <=12 years aged pediatric patient assessed as incidence of nausea at 35.5 mg/kg, po tid; type: organism-based; parameters: dose 35.5 mg/kg, route oral; conditions: in vivo
Homo sapiens [20] = assay: Toxicity in orally dosed VZV-infected patient assessed as incidence of nausea administered as tid; type: organism-based; conditions: in vivo, po
Homo sapiens [21] = assay: Toxicity in VZV-infected 2 to <6 years aged pediatric patient assessed as incidence of nausea at 40.6 mg/kg, po tid; type: organism-based; parameters: dose 40.6 mg/kg, route oral; conditions: in vivo
Homo sapiens [22] = assay: Toxicity in orally dosed HSV-infected patient assessed as incidence of cough administered as bid; type: organism-based; conditions: in vivo, po
Homo sapiens [23] = assay: Toxicity in HSV-infected 1 to <2 years aged pediatric patient assessed as pyrexia at 30.9 mg/kg, po administered as bid; type: organism-based; parameters: dose 30.9 mg/kg, route oral; conditions: in vivo
Homo sapiens [24] = assay: Toxicity in VZV-infected 2 to <6 years aged pediatric patient assessed as incidence of vomiting at 40.6 mg/kg, po tid; type: organism-based; parameters: dose 40.6 mg/kg, route oral; conditions: in vivo
Homo sapiens [25] = assay: Toxicity in orally dosed HSV-infected patient assessed as incidence of diarrhea administered as bid; type: organism-based; conditions: in vivo, po
[26] = Apparent oral clearance in 1 to <2 years aged pediatric patient administered as single dose; type: ADME, organism-based; conditions: human, in vivo
Homo sapiens [27] = assay: Toxicity in orally dosed HSV-infected patient assessed as at least one adverse event administered as bid; type: organism-based; conditions: in vivo, po
Homo sapiens [28] = assay: Toxicity in VZV-infected 2 to <6 years aged pediatric patient assessed as at least one adverse event at 40.6 mg/kg, po tid; type: organism-based; parameters: dose 40.6 mg/kg, route oral; conditions: in vivo
[29] = Apparent oral clearance in 2 to <6 years aged pediatric patient administered as single dose; type: ADME, organism-based; conditions: human, in vivo
Homo sapiens [30] = assay: Toxicity in orally dosed VZV-infected patient assessed as incidence of headache administered as tid; type: organism-based; conditions: in vivo, po
Homo sapiens [31] = assay: Toxicity in HSV-infected 6 to <=12 years aged pediatric patient assessed as pyrexia at 23.5 mg/kg, po bid; type: organism-based; parameters: dose 23.5 mg/kg, route oral; conditions: in vivo
Homo sapiens [32] = assay: Toxicity in VZV-infected 1 to <2 years aged pediatric patient assessed as incidence of pruritus at 40.8 mg/kg, po tid; type: organism-based; parameters: dose 40.8 mg/kg, route oral; conditions: in vivo
Homo sapiens [33] = assay: Toxicity in VZV-infected 6 to <=12 years aged pediatric patient assessed as pyrexia at 35.5 mg/kg, po tid; type: organism-based; parameters: dose 35.5 mg/kg, route oral; conditions: in vivo
Homo sapiens [34] = assay: Toxicity in VZV-infected 6 to <=12 years aged pediatric patient assessed as incidence of cellulitis at 35.5 mg/kg, po tid; type: organism-based; parameters: dose 35.5 mg/kg, route oral; conditions: in vivo
Homo sapiens [35] = assay: Toxicity in VZV-infected 2 to <6 years aged pediatric patient assessed as incidence of diarrhea at 40.6 mg/kg, po tid; type: organism-based; parameters: dose 40.6 mg/kg, route oral; conditions: in vivo
Homo sapiens [36] = assay: Toxicity in HSV-infected 1 to <2 years aged pediatric patient assessed as incidence of nausea at 30.9 mg/kg, po bid; type: organism-based; parameters: dose 30.9 mg/kg, route oral; conditions: in vivo
Homo sapiens [37] = assay: Toxicity in VZV-infected 6 to <=12 years aged pediatric patient assessed as incidence of headache at 35.5 mg/kg, po tid; type: organism-based; parameters: dose 35.5 mg/kg, route oral; conditions: in vivo
Homo sapiens [38] = assay: Toxicity in VZV-infected 6 to <=12 years aged pediatric patient assessed as incidence of abdominal pain at 35.5 mg/kg, po tid; type: organism-based, Abdomen; parameters: dose 35.5 mg/kg, route oral; conditions: in vivo
Homo sapiens [39] = assay: Toxicity in HSV-infected 1 to <2 years aged pediatric patient assessed as incidence of vomiting at 30.9 mg/kg, po bid; type: organism-based; parameters: dose 30.9 mg/kg, route oral; conditions: in vivo
Homo sapiens [40] = assay: Toxicity in HSV-infected 1 to <2 years aged pediatric patient assessed as incidence of cough at 30.9 mg/kg, po bid; type: organism-based; parameters: dose 30.9 mg/kg, route oral; conditions: in vivo
Homo sapiens [41] = assay: Toxicity in VZV-infected 2 to <6 years aged pediatric patient assessed as incidence of abdominal pain at 40.6 mg/kg, po tid; type: organism-based, Abdomen; parameters: dose 40.6 mg/kg, route oral; conditions: in vivo
[42] = Half life in 2 to <6 years aged pediatric patient administered as single dose; type: ADME, organism-based; conditions: human, in vivo
Homo sapiens [43] = assay: Toxicity in HSV-infected 2 to <6 years aged pediatric patient assessed as incidence of cough at 27.6 mg/kg, po bid; type: organism-based; parameters: dose 27.6 mg/kg, route oral; conditions: in vivo

AUC (Homo sapiens [1]): 9.33 ug/hr.ml
AUC (Homo sapiens [10]): 6.52 ug/hr.ml
half-life [13]: 1.62 h
Cmax [15]: 3410 ng/mL
Cmax [16]: 2780 ng/mL
AUC (Homo sapiens [17]): 6.31 ug/hr.ml
CL/F [26]: 278 mL/min
CL/F [29]: 410 mL/min
half-life [42]: 1.28 h
SMILES: Nc1nc2c(ncn2CCC(CO)CO)c(=O)[nH]1 [PENCICLOVIR]
Activity (Homo sapiens [2]): 45.3%
Activity (Homo sapiens [3]): 0%
Activity (Homo sapiens [4]): 11.1%
Activity (Homo sapiens [5]): 3.8%
Activity (Homo sapiens [6]): 18.8%
Activity (Homo sapiens [7]): 7.7%
Activity (Homo sapiens [8]): 8.5%
Activity (Homo sapiens [9]): 0%
Activity (Homo sapiens [11]): 42.2%
Activity (Homo sapiens [12]): 4.3%
Activity (Homo sapiens [14]): 7.5%
Activity (Homo sapiens [18]): 10.6%
Activity (Homo sapiens [19]): 6.3%
Activity (Homo sapiens [20]): 3.8%
Activity (Homo sapiens [21]): 5.3%
Activity (Homo sapiens [22]): 6.4%
Activity (Homo sapiens [23]): 15.4%
Activity (Homo sapiens [24]): 0%
Activity (Homo sapiens [25]): 8.5%
Activity (Homo sapiens [27]): 55.3%
Activity (Homo sapiens [28]): 52.6%
Activity (Homo sapiens [30]): 3.8%
Activity (Homo sapiens [31]): 0%
Activity (Homo sapiens [32]): 5.6%
Activity (Homo sapiens [33]): 6.3%
Activity (Homo sapiens [34]): 6.3%
Activity (Homo sapiens [35]): 5.3%
Activity (Homo sapiens [36]): 7.7%
Activity (Homo sapiens [37]): 12.5%
Activity (Homo sapiens [38]): 12.5%
Activity (Homo sapiens [39]): 15.4%
Activity (Homo sapiens [40]): 7.7%
Activity (Homo sapiens [41]): 0%
Activity (Homo sapiens [43]): 6.3%

Source: ChEMBL document CHEMBL1649203, “Pharmacokinetics and safety of famciclovir in children with herpes simplex or varicella-zoster virus infection” (Antimicrob Agents Chemother, 2009)
